Like-named read-outs stand apart in the source and are kept apart here.
Target: T1, human TRPA1 (Homo sapiens, UniProt O75762)
T1 construct: expressed in transfected cells; host or cells: Human embryonic kidney-derived 293T cells, transiently transfected with the pcDNA3.1/zeo(+) human TRPA1 plasmid
Assay: Measurement of TRPA1 antagonist activity (intracellular calcium increase, FLIPR, allylisothiocyanate stimulation)
Type: cell-based
Settings: read-out: antagonism hTRPA1
Description: Measurement of TRPA1 Antagonist Activity
Human TRPA1 Expression Plasmid
As cDNA encoding human TRPA1 (GenBank accession No. […]), a commercially available product was purchased (manufactured by Kazusa DNA Research Institute, clone No.: pFN21AB7348, item No.: FHC07217). Using this as a template, full-length human TRPA1 gene was amplified using the primer sequences shown below, by reaction using DNA polymerase (manufactured by Stratagene, trade name: PfuUltra High-Fidelity DNA Polymerase).
A recognition site (underlined) of restriction enzyme HindIII was added to the 5′ side, and XbaI site (underlined) was added to the 3′ side, and GTT of the template sequence was changed to termination codon TAG (bold). The obtained double stranded DNA was enzyme-digested with HindIII and XbaI, and introduced into a multicloning site of expression plasmid pcDNA3.1/zeo(+) (manufactured by Invitrogen) to give a human TRPA1 expression plasmid.
Human embryonic kidney-derived 293T cells were cultured in Dulbecco's Modified Eagle Medium containing 10% fetal bovine serum, 10 unit penicillin, and 10 μg streptomycin, plated on a petri dish having a diameter of 10 cm at 3×10^6 cells, and cultured for 24 hr. A medium containing a reduced amount of serum (manufactured by Invitrogen, trade name: OPTI-MEM, 600 μL), a gene insertion reagent (manufactured by Mirus Bio, trade name: Mirus TransIT-293, 18 μL), and human TRPA1 expression plasmid (6 μg) were mixed, the total amount of the mixture was added to the cells on the petri dish to allow for gene transfer. The cells were recovered about 8 hr later, plated on a poly-D-lysine coated 384 well black/clear bottom plate at 7,500-12,000 cells/well, and cultured overnight.
Measurement of Intracellular Calcium Increase
The 384 well plate was recovered, and the medium was removed. A calcium-bonded fluorescent indicator (manufactured by Molecular Device, trade name: Calcium4 Assay Kit, 40 μL) dissolved in assay buffer (1×HBSS, 20 mM HEPES, pH 7.2) was added, and the cells were stained in a 37° C. incubator for 1 hr. The cells were taken out at room temperature and left standing for 15 min or more. A test substance (10 μL) was added by a 384 well type dispenser, and the mixture was incubated at room temperature for 10 min. Then, allylisothiocyanate (12.5 μL) at a final concentration of 20 μM was added by a fluorescence imaging plate reader (manufactured by Molecular Device, FLIPR), and changes in the relative fluorescence intensity were measured for 5 min.
Test Substance Preparation
The test substance was dissolved in dimethyl sulfoxide and serially diluted with an assay buffer containing 0.1% bovine serum albumin (1×HBSS, 20 mM HEPES, pH 7.2) to a 5-fold concentration of the evaluation concentration. Allylisothiocyanate, which is a known TRPA1 activator, was dissolved in dimethyl sulfoxide to 100 mM, and further diluted 5-fold (100 μM) of the final concentration, like the test substance.
Calculation of Antagonist Activity
Under the test substance-free conditions, the maximum variation range of the fluorescence intensity before and after allylisothiocyanate stimulation was defined to be 100% activity rate, and the variation range before and after buffer stimulation was defined as 0% activity rate. The activity rate on addition of the test substance was determined, and the numerical value obtained by subtracting the activity rate from 100 was defined to be an inhibitory rate. 1050, which is the concentration of the test substance necessary for reaching the 50% inhibitory rate, was calculated from the sigmoid approximate curve by a spreadsheet software Excel-Fit.

[1] = allylisothiocyanate 20 μM stimulation, FLIPR calcium assay
[2] = 293T cells transfected with human TRPA1, allylisothiocyanate 20 μM, concentration for 50% inhibitory rate

T1 sequence (O75762 whole entry): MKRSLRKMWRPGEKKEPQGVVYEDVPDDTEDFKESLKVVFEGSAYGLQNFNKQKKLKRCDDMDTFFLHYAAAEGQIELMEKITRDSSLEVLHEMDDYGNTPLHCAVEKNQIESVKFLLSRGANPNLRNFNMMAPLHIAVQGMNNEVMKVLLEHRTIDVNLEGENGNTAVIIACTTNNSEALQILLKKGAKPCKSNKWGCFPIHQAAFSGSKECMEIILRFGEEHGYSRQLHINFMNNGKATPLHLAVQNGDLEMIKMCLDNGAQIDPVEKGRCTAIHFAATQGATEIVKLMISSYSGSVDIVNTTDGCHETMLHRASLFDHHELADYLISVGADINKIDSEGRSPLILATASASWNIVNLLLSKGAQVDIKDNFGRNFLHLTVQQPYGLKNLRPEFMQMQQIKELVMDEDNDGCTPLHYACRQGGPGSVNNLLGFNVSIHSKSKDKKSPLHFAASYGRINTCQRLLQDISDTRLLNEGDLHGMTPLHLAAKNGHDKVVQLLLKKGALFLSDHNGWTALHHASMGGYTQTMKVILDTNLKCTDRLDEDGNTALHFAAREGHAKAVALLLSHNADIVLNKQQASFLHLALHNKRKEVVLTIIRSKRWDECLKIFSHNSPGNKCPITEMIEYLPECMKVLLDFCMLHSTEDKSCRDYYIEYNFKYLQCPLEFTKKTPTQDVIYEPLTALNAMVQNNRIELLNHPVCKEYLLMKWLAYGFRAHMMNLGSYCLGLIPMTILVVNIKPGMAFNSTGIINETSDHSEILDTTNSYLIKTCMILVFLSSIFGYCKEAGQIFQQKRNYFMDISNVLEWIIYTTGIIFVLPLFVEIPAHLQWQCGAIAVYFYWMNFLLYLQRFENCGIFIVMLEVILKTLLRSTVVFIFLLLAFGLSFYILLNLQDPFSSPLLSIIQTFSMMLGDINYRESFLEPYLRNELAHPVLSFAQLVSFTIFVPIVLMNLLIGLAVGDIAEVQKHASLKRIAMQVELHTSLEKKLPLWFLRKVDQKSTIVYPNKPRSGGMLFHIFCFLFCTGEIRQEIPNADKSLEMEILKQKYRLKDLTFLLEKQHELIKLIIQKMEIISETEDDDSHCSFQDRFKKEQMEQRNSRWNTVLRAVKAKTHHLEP

IC50 [1] [nM]	IC50 [2] [nM]	Compound
190		CC(Oc1cccc(CNC(=O)[C@@H]2CCCN2S(=O)(=O)c2ccc(F)cc2)c1)c1ccccc1 (stereo in doubt) [Example 143, (2S)-1-(4-fluorophenyl)sulfonyl-N-[[3-[(1R)-1-phenylethoxy]phenyl]methyl]pyrrolidine-2-carboxamide]
65		CC(Oc1cccc(CNC(=O)[C@@H]2CCCN2S(=O)(=O)c2ccc(F)cc2)c1)c1ccc(Cl)cc1 (stereo in doubt) [Example 145, (2S)-N-[[3-[(1R)-1-(4-chlorophenyl)ethoxy]phenyl]methyl]-1-(4-fluorophenyl)sulfonyl-pyrrolidine-2-carboxamide]
280		O=C(NCc1cccc(Oc2ccc(C(F)(F)F)cc2)c1)[C@@H]1CC(F)CN1S(=O)(=O)c1ccc(F)cc1 (stereo in doubt) [Example 158, (2S,4R)-4-fluoro-1-(4-fluorophenyl)sulfonyl-N-[[3-[4-(trifluoromethyl)phenoxy]phenyl]methyl]pyrrolidine-2-carboxamide]
	220	O=C(NCc1ccc(Oc2ccccc2)cc1)[C@@H]1CCCN1S(=O)(=O)c1ccc(Cl)s1 [Example 1, (2S)-1-(5-chlorothiophene-2-sulfonyl)-N-[(4-phenoxyphenyl)methyl]pyrrolidine-2-carboxamide]
	210	O=C(NCc1ccc(Oc2ccc(C(F)(F)F)cc2)cc1)[C@@H]1CCCN1S(=O)(=O)c1ccc(Cl)s1 [Example 2]
	88	O=C(NCc1ccc(Oc2ccc(OC(F)(F)F)cc2)cc1)[C@@H]1CCCN1S(=O)(=O)c1ccc(Cl)s1 [Example 3]
	100	O=C(NCc1ccc(Oc2ccc(Cl)cc2)cc1)[C@@H]1CCCN1S(=O)(=O)c1ccc(Cl)s1 [Example 4, (2S)-N-{[4-(4-chlorophenoxy)phenyl]methyl}-1-(5-chlorothiophene-2-sulfonyl)pyrrolidine-2-carboxamide]
	130	O=C(NCc1ccc(Oc2ccc(F)cc2)cc1)[C@@H]1CCCN1S(=O)(=O)c1ccc(Cl)s1 [Example 5, (2S)-1-(5-chlorothiophene-2-sulfonyl)-N-{[4-(4-fluorophenoxy)phenyl]methyl)pyrrolidine-2-carboxamide]
	100	O=C(NCc1ccc(Oc2cccc(C(F)(F)F)c2)cc1)[C@@H]1CCCN1S(=O)(=O)c1ccc(Cl)s1 [Example 6, (2S)-1-(5-chlorothiophene-2-sulfonyl)-N-({4-[3-(trifluoromethyl)phenoxy]phenyl}methyl)pyrrolidine-2-carboxamide]
	81	O=C(NCc1ccc(Oc2cccc(OC(F)(F)F)c2)cc1)[C@@H]1CCCN1S(=O)(=O)c1ccc(Cl)s1 [Example 7, (2S)-1-(5-chlorothiophene-2-sulfonyl)-N-({4-[3-(trifluoromethoxy)phenoxy]phenyl}methyl)pyrrolidine-2-carboxamide]
	100	O=C(NCc1ccc(Oc2cccc(Cl)c2)cc1)[C@@H]1CCCN1S(=O)(=O)c1ccc(Cl)s1 [Example 8, (2S)-N-{[4-(3-chlorophenoxy)phenyl]methyl}-1-(5-chlorothiophene-2-sulfonyl)pyrrolidine-2-carboxamide]
	170	O=C(NCc1ccc(Oc2cccc(F)c2)cc1)[C@@H]1CCCN1S(=O)(=O)c1ccc(Cl)s1 [Example 9, (2S)-1-(5-chlorothiophene-2-sulfonyl)-N-{[4-(3-fluoro-phenoxy)phenyl]methyl}pyrrolidine-2-carboxamide]
	450	O=C(NCc1ccc(Oc2ccccc2C(F)(F)F)cc1)[C@@H]1CCCN1S(=O)(=O)c1ccc(Cl)s1 [Example 10, (2S)-1-(5-chlorothiophene-2-sulfonyl)-N-({4-[2-(trifluoro-methyl)phenoxy]phenyl}methyl)pyrrolidine-2-carboxamide]
	200	O=C(NCc1ccc(Oc2ccc(F)c(Cl)c2)cc1)[C@@H]1CCCN1S(=O)(=O)c1ccc(Cl)s1 [Example 11, (2S)-N-{[4-(3-chloro-4-fluoro-phenoxy)phenyl]methyl}-1-(5-chlorothiophene-2-sulfonyl)pyrrolidine-2-carboxamide]
	87	O=C(NCc1ccc(Oc2ccnc(C(F)(F)F)c2)cc1)[C@@H]1CCCN1S(=O)(=O)c1ccc(Cl)s1 [Example 12, (2S)-1-(5-chlorothiophene-2-sulfonyl)-N-((4-{[2-(trifluoro-methyl)-4-pyridyl]oxy}phenyl)methyl)pyrrolidine-2-carboxamide]
	180	O=C(NCc1ccc(Oc2ccnc(Cl)c2)cc1)[C@@H]1CCCN1S(=O)(=O)c1ccc(Cl)s1 [Example 13, (2S)-N-({4-[(2-chloro-4-pyridyl)oxy]phenyl}methyl)-1-(5-chlorothiophene-2-sulfonyl)pyrrolidine-2-carboxamide]
	240	O=C(NCc1cccc(Oc2ccccc2)c1)[C@@H]1CCCN1S(=O)(=O)c1ccc(Cl)s1 [Example 14, (2S)-1-(5-chlorothiophene-2-sulfonyl)-N-[(3-phenoxyphenyl)methyl]pyrrolidine-2-carboxamide]
	15	O=C(NCc1cccc(Oc2ccc(C(F)(F)F)cc2)c1)[C@@H]1CCCN1S(=O)(=O)c1ccc(Cl)s1 [Example 15, (2S)-1-(5-chlorothiophene-2-sulfonyl)-N-({3-[4-(trifluoro-methyl)phenoxy]phenyl}methyl)pyrrolidine-2-carboxamide]
	100	O=C(NCc1cccc(Oc2ccc(OC(F)(F)F)cc2)c1)[C@@H]1CCCN1S(=O)(=O)c1ccc(Cl)s1 [Example 16, (2S)-1-(5-chlorothiophene-2-sulfonyl)-N-({3-[4-(trifluoro-methoxy)phenoxy]phenyl}methyl)pyrrolidine-2-carboxamide]
	120	O=C(NCc1cccc(Oc2ccc(Cl)cc2)c1)[C@@H]1CCCN1S(=O)(=O)c1ccc(Cl)s1 [Example 17, (2S)-N-{[3-(4-chlorophenoxy)phenyl]methyl}-1-(5-chlorothiophene-2-sulfonyl)pyrrolidine-2-carboxamide]
	130	O=C(NCc1cccc(Oc2ccc(F)cc2)c1)[C@@H]1CCCN1S(=O)(=O)c1ccc(Cl)s1 [Example 18, (2S)-1-(5-chlorothiophene-2-sulfonyl)-N-{[3-(4-fluoro-phenoxy)phenyl]methyl}pyrrolidine-2-carboxamide]
	80	O=C(NCc1cccc(Oc2cccc(C(F)(F)F)c2)c1)[C@@H]1CCCN1S(=O)(=O)c1ccc(Cl)s1 [Example 19, (2S)-1-(5-chlorothiophine-2-sulfonyl)-N-({3-[3-(trifluoro-methyl)phenoxy]phenyl}methyl)pyrrolidine-2-carboxamide]
	71	O=C(NCc1cccc(Oc2cccc(OC(F)(F)F)c2)c1)[C@@H]1CCCN1S(=O)(=O)c1ccc(Cl)s1 [Example 20, (2S)-1-(5-chlorothiophene-2-sulfonyl)-N-({3-[3-(trifluoro-methoxy)phenoxy]phenyl}methyl)pyrrolidine-2-carboxamide]
	45	O=C(NCc1cccc(Oc2cccc(Cl)c2)c1)[C@@H]1CCCN1S(=O)(=O)c1ccc(Cl)s1 [Example 21, (2S)-N-{[3-(3-chlorophenoxy)phenyl]methyl}-1-(5-chloro-thiophene-2-sulfonyl)pyrrolidine-2-carboxamide]
	56	O=C(NCc1cccc(Oc2cccc(F)c2)c1)[C@@H]1CCCN1S(=O)(=O)c1ccc(Cl)s1 [Example 22, (2S)-1-(5-chlorothiophene-2-sulfonyl)-N-{[3-(3-fluoro-phenoxy)phenyl]methyl}pyrrolidine-2-carboxamide]
	380	O=C(NCc1cccc(Oc2ccccc2C(F)(F)F)c1)[C@@H]1CCCN1S(=O)(=O)c1ccc(Cl)s1 [Example 23, (2S)-1-(5-chlorothiophene-2-sulfonyl)-N-({3-[2-(trifluoro-methyl)phenoxy]phenyl}methyl)pyrrolidine-2-carboxamide]

Reference: US20150284375A1 (AJINOMOTO CO., INC., priority 2012, published 2015)
